Assay results reported in patent publication US20220235051A1, “DI-FLUORO AZEPANES AS HBV CAPSID ASSEMBLY MODULATORS” (priority 2019, published 2022).

test system: HBV; assay: HBV replication inhibition assay (BDNA assay) in HepG2.2.15 cells; type: cell-based; conditions: Hepatitis B virus, HepG2.2.15, 144 h, HepG2.2.15 cells, BDNA assay, encapsidated HBV DNA in supernatant at day 6; read-out: HepG2.2.15 EC50 HBV DNA
Method: HBV replication inhibition by the disclosed compounds were determined in cells infected or transfected with HBV or cells with stably integrated HBV, such as HepG2.2.15 cells (Sells et al. 1987). In this example, HepG2.2.15 cells were maintained in cell culture medium containing 10% fetal bovine serum (FBS), Geneticin, L-glutamine, penicillin and streptomycin. HepG2.2.15 cells were seeded in 96-well plates at a density of 40,000 cells/well and were treated with serially diluted compounds at a final DMSO concentration of 0.5% either alone or in combination by adding drugs in a checker box format. Cells were incubated with compounds for three days, after which medium was removed and fresh medium containing compounds was added to cells and incubated for another three days. At day 6, supernatant was removed and treated with DNase at 37° C. for 60 minutes, followed by enzyme inactivation at 75° C. for 15 minutes. Encapsidated HBV DNA was released from the virions and covalently linked HBV polymerase by incubating in lysis buffer (Affymetrix QS0010) containing 2.5 μg proteinase K at 50° C. for 40 minutes. HBV DNA was denatured by addition of 0.2 M NaOH and detected using a branched DNA (BDNA) QuantiGene assay kit according to manufacturer recommendation (Affymetrix). HBV DNA levels were also quantified using qPCR, based on amplification of encapsidated HBV DNA extraction with QuickExtraction Solution (Epicentre Biotechnologies) and amplification of HBV DNA using HBV specific PCR probes that can hybridize to HBV DNA and a fluorescently labeled probe for quantitation. In addition, cell viability of HepG2.2.15 cells incubated with test compounds alone or in combination was determined by using CellTitre-Glo reagent according to the manufacturer protocol (Promega). The mean background signal from wells containing only culture medium was subtracted from all other samples, and percent inhibition at each compound concentration was calculated by normalizing to signals from HepG2.2.15 cells treated with 0.5% DMSO using equation E1.
% inhibition=(DMSOave−Xi)/DMSOave×100% E1
where DMSOave is the mean signal calculated from the wells that were treated with DMSO control (0% inhibition control) and Xi is the signal measured from the individual wells. EC50 values, effective concentrations that achieved 50% inhibitory effect, were determined by non-linear fitting using Graphpad Prism software (San Diego, Calif.) and equation E2.
Y=Ymin+(Ymax−Ymin)/(1+10(Log EC50−X)×HillSlope) E2
where Y represents percent inhibition values and X represents the logarithm of compound concentrations.
Selected disclosed compounds were assayed in the HBV replication assay (BDNA assay), as described above, and a representative group of these active compounds is shown in Table 3.

Point of comparison: `N#Cc1c(F)ccc(NC(=O)N2CCc3nn4c(c3C2)C(F)(F)CC[C@H](O)C4)c1F` [Example 6, (S)-N-(3-Cyano-2,4-difluorophenyl)-11,11-difluoro-8-hydroxy-3,4,8,9,10,11-hexahydro-1H-pyrido[4′,3′:3,4]pyrazolo[1,5-a]azepine-2(7H)-carboxamide], EC50 44 nM. Against it:
- N#Cc1cc(NC(=O)N2CCc3nn4c(c3C2)C(F)(F)CC[C@H](O)C4)ccc1F [Example 3, (S)-N-(3-Cyano-4-fluorophenyl)-11,11-difluoro-8-hydroxy-3,4,8,9,10,11-hexahydro-1H-pyrido[4′,3′:3,4]pyrazolo[1,5-a]azepine-2(7H)-carboxamide] — 2-fold lower, 22 nM
- O=C(Nc1ccc(F)c(C(F)(F)F)c1)N1CCc2nn3c(c2C1)C(F)(F)CC[C@H](O)C3 [Example 4, (S)-11,11-Difluoro-N-(4-fluoro-3-(trifluoromethyl)phenyl)-8-hydroxy-3,4,8,9,10,11-hexahydro-1H-pyrido[4′,3′:3,4]pyrazolo[1,5-a]azepine-2(7H)-carboxamide] — within 1.5-fold, 37 nM
- O=C(Nc1ccnc(Br)c1F)N1CCc2nn3c(c2C1)C(F)(F)CC[C@H](O)C3 [Example 5, (S)-N-(2-Bromo-3-fluoropyridin-4-yl)-11,11-difluoro-8-hydroxy-3,4,8,9,10,11-hexahydro-1H-pyrido[4′,3′:3,4]pyrazolo[1,5-a]azepine-2(7H)-carboxamide] — within 1.5-fold, 57 nM
- O=C(Nc1ccc(F)c(Br)c1F)N1CCc2nn3c(c2C1)C(F)(F)CC[C@H](O)C3 [Example 7, (S)-N-(3-Bromo-2,4-difluorophenyl)-11,11-difluoro-8-hydroxy-3,4,8,9,10,11-hexahydro-1H-pyrido[4′,3′:3,4]pyrazolo[1,5-a]azepine-2(7H)-carboxamide] — within 1.5-fold, 31 nM
- N#Cc1cc(NC(=O)N2CCc3nn4c(c3C2)C(F)(F)CC[C@@H](O)C4)ccc1F [Example 8, (R)-N-(3-Cyano-4-fluorophenyl)-11,11-difluoro-8-hydroxy-3,4,8,9,10,11-hexahydro-1H-pyrido[4′,3′:3,4]pyrazolo[1,5-a]azepine-2(7H)-carboxamide] — 4.4-fold lower, 10 nM
- O=C(Nc1ccc(F)c(C(F)(F)F)c1)N1CCc2nn3c(c2C1)C(F)(F)CC[C@@H](O)C3 [Example 9, (R)-11,11-Difluoro-N-(4-fluoro-3-(trifluoromethyl)phenyl)-8-hydroxy-3,4,8,9,10,11-hexahydro-1H-pyrido[4′,3′:3,4]pyrazolo[1,5-a]azepine-2(7H)-carboxamide] — 1.6-fold lower, 28 nM
- O=C(Nc1ccnc(Br)c1F)N1CCc2nn3c(c2C1)C(F)(F)CC[C@@H](O)C3 [Example 10, (R)-N-(2-Bromo-3-fluoropyridin-4-yl)-11,11-difluoro-8-hydroxy-3,4,8,9,10,11-hexahydro-1H-pyrido[4′,3′:3,4]pyrazolo[1,5-a]azepine-2(7H)-carboxamide] — within 1.5-fold, 32 nM
- N#Cc1c(F)ccc(NC(=O)N2CCc3nn4c(c3C2)C(F)(F)CC[C@@H](O)C4)c1F [Example 11, (R)-N-(3-Cyano-2,4-difluorophenyl)-11,11-difluoro-8-hydroxy-3,4,8,9,10,11-hexahydro-1H-pyrido[4′,3′:3,4]pyrazolo[1,5-a]azepine-2(7H)-carboxamide] — 1.8-fold lower, 24 nM
- O=C(Nc1ccc(F)c(Br)c1F)N1CCc2nn3c(c2C1)C(F)(F)CC[C@@H](O)C3 [Example 12, (R)-N-(3-Bromo-2,4-difluorophenyl)-11,11-difluoro-8-hydroxy-3,4,8,9,10,11-hexahydro-1H-pyrido[4′,3′:3,4]pyrazolo[1,5-a]azepine-2(7H)-carboxamide] — 2.3-fold lower, 19 nM
- N#Cc1cc(NC(=O)N2CCc3nn4c(c3C2)C(F)(F)CC[C@H](OCC(F)F)C4)ccc1F [Example 13, (S)-N-(3-Cyano-4-fluorophenyl)-8-(2,2-difluoroethoxy)-11,11-difluoro-3,4,8,9,10,11-hexahydro-1H-pyrido[4′,3′:3,4]pyrazolo[1,5-a]azepine-2(7H)-carboxamide] — within 1.5-fold, 42 nM
- N#Cc1cc(NC(=O)N2CCc3nn4c(c3C2)C(F)(F)CC[C@@H](OCC(F)F)C4)ccc1F [Example 14, (R)-N-(3-Cyano-4-fluorophenyl)-8-(2,2-difluoroethoxy)-11,11-difluoro-3,4,8,9,10,11-hexahydro-1H-pyrido[4′,3′:3,4]pyrazolo[1,5-a]azepine-2(7H)-carboxamide] — within 1.5-fold, 51 nM
- N#Cc1cc(NC(=O)N2CCc3nn4c(c3C2)C(F)(F)CCC(O)(CF)C4)ccc1F (centres unmarked) [Example 37, N-(3-Cyano-4-fluorophenyl)-11,11-difluoro-8-(fluoromethyl)-8-hydroxy-3,4,8,9,10,11-hexahydro-1H-pyrido[4′,3′:3,4]pyrazolo[1,5-a]azepine-2(7H)-carboxamide] — 2.9-fold lower, 15 nM
- N#CCC1(O)CCC(F)(F)c2c3c(nn2C1)CCN(C(=O)Nc1ccc(F)c(C#N)c1)C3 (centres unmarked) [Example 40, N-(3-Cyano-4-fluorophenyl)-8-(cyanomethyl)-11,11-difluoro-8-hydroxy-3,4,8,9,10,11-hexahydro-1H-pyrido[4′,3′:3,4]pyrazolo[1,5-a]azepine-2(7H)-carboxamide] — 3.4-fold lower, 13 nM
- N#Cc1cc(NC(=O)N2CCc3nn4c(c3C2)C(F)(F)CCC(F)(CO)C4)ccc1F (centres unmarked) [Example 45, N-(3-Cyano-4-fluorophenyl)-8,11,11-trifluoro-8-(hydroxymethyl)-3,4,8,9,10,11-hexahydro-1H-pyrido[4′,3′:3,4]pyrazolo[1,5-a]azepine-2(7H)-carboxamide] — 8.8-fold lower, 5 nM
- O=C(Nc1ccnc(Br)c1F)N1CCc2nn3c(c2C1)C(F)(F)CCC(F)(CO)C3 (centres unmarked) [Example 46, N-(2-Bromo-3-fluoropyridin-4-yl)-8,11,11-trifluoro-8-(hydroxymethyl)-3,4,8,9,10,11-hexahydro-1H-pyrido[4′,3′:3,4]pyrazolo[1,5-a]azepine-2(7H)-carboxamide] — 3.7-fold lower, 12 nM
- CC(=O)NCC1CCC(F)(F)c2c3c(nn2C1)CCN(C(=O)Nc1ccc(F)c(C#N)c1)C3 (centres unmarked) [Example 49] — within 1.5-fold, 33 nM
- CC(=O)NCC1CCC(F)(F)c2c3c(nn2C1)CCN(C(=O)Nc1ccnc(Br)c1F)C3 (centres unmarked) [Example 50, 8-(Acetamidomethyl)-N-(2-bromo-3-fluoropyridin-4-yl)-11,11-difluoro-3,4,8,9,10,11-hexahydro-1H-pyrido[4′,3′:3,4]pyrazolo[1,5-a]azepine-2(7H)-carboxamide] — 2.5-fold higher, 110 nM
- COC(=O)NCC1CCC(F)(F)c2c3c(nn2C1)CCN(C(=O)Nc1ccc(F)c(C#N)c1)C3 (centres unmarked) [Example 53, Methyl ((2-((3-cyano-4-fluorophenyl)carbamoyl)-11,11-difluoro-2,3,4,7,8,9,10,11-octahydro-1H-pyrido[4′,3′:3,4]pyrazolo[1,5-a]azepin-8-yl)methyl)-carbamate] — 4.4-fold lower, 10 nM
- COC(=O)NCC1CCC(F)(F)c2c3c(nn2C1)CCN(C(=O)Nc1ccnc(Br)c1F)C3 (centres unmarked) [Example 54, Methyl ((2-((2-bromo-3-fluoropyridin-4-yl)carbamoyl)-11,11-difluoro-2,3,4,7,8,9,10,11-octahydro-1H-pyrido[4′,3′:3,4]pyrazolo[1,5-a]azepin-8-yl)methyl)-carbamate] — 5.5-fold lower, 8 nM
- C#CC1(O)CCC(F)(F)c2c3c(nn2C1)CCN(C(=O)Nc1ccc(F)c(C#N)c1)C3 (centres unmarked) [Example 58, N-(3-Cyano-4-fluorophenyl)-8-ethynyl-11,11-di fluoro-8-hydroxy-3,4,8,9,10,11-hexahydro-1H-pyrido[4′,3′:3,4]pyrazolo[1,5-a]azepine-2(7H)-carboxamide] — within 1.5-fold, 37 nM

same assay, conditions: Hepatitis B virus, HepG2.2.15, 144 h, read-out: HepG2.2.15 EC50 HBV DNA

Point of comparison: `O=C(Nc1ccnc(Br)c1F)N1CCc2nn3c(c2C1)C(F)(F)CCC(CNC(=O)C(F)(F)F)C3` (centres unmarked) [Example 52, N-(2-Bromo-3-fluoropyridin-4-yl)-11,11-difluoro-8-((2,2,2-trifluoroacetamido)methyl)-3,4,8,9,10,11-hexahydro-1H-pyrido[4′,3′:3,4]pyrazolo[1,5-a]azepine-2(7H)-carboxamide], EC50 102 nM. Against it:
- N#Cc1cc(NC(=O)N2CCc3nn4c(c3C2)C(F)(F)CCC(CNC(=O)C(F)(F)F)C4)ccc1F (centres unmarked) [Example 51, N-(3-Cyano-4-fluorophenyl)-11,11-difluoro-8-((2,2,2-trifluoroacetamido)methyl)-3,4,8,9,10,11-hexahydro-1H-pyrido[4′,3′:3,4]pyrazolo[1,5-a]azepine-2(7H)-carboxamide] — 3.2-fold lower, 32 nM
